Assays:
[1] = system: SARS-CoV-2; test: Inhibitory activity of cytopathic effect (CPE) in Vero E6/TMPRSS2 cells; type: cell-based
[2] = biological target: SARS-CoV-2 3CL protease (Severe acute respiratory syndrome coronavirus 2, UniProt P0DTD1); test: Inhibitory activity test against SARS-CoV-2 3CL proteases; type: biochemical; conditions: read-out: IC50 (50% SARS-CoV-2 3CL protease inhibitory concentration)
[3] = system: SARS-CoV-2; test: Inhibitory activity of cytopathic effect (CPE) in HEK293T/ACE2-TMPRSS2 cells; type: cell-based; conditions: Severe acute respiratory syndrome coronavirus 2, HEK-293T, 72 h; HEK293T/ACE2-TMPRSS2 cells, cultured 3 days, CellTiter-Glo 2.0 luminescence; read-out: EC50 (50% SARS-CoV-2 infected cell death inhibitory concentration)
[4] = Severe acute respiratory syndrome coronavirus 2, VeroE6/TMPRSS2, 72 h, 50% SARS-CoV-2 infected cell death inhibitory concentration, CellTiter-Glo 2.0 after 3 days culture
[5] = Severe acute respiratory syndrome coronavirus 2, VeroE6/TMPRSS2, 50% SARS-CoV-2 infected cell death inhibitory concentration, class symbols

| SMILES | EC50 [1, 4] [nM] | IC50 [2] [nM] | EC50 [1, 5] [nM] | EC50 [3] [nM] |
| --- | --- | --- | --- | --- |
| Cn1cnc(Cn2c(=O)c3c(Cl)cc(-c4cc5c(cc4Cl)NC(=O)C5)cc3n(Cc3cc(F)c(F)c(F)c3)c2=O)n1 [Compound I-0003] | 692 | 8.6 | – | – |
| Cc1cncc(-n2c(=O)c3c(Cl)cc(-c4cc5c(cc4Cl)NC(=O)C5)cc3n(Cc3ccc(F)c(C#N)c3)c2=O)c1 [Compound I-0004] | 1160 | 9.9 | – | – |
| Cc1cncc(-n2c(=O)c3c(Cl)cc(-c4cc(C(N)=O)ccc4Cl)cc3n(Cc3cc(F)c(F)c(F)c3)c2=O)c1 [Compound I-0007] | 1140 | 19 | – | – |
| Cc1cncc(-n2c(=O)c3c(Cl)cc(-c4cc(C(N)=O)ccc4Cl)cc3n(Cc3ccc(F)c(C#N)c3)c2=O)c1 [Compound I-0010] | – | < 100 | 1000 to 10000 | – |
| Cc1cncc(-n2c(=O)c3c(Cl)cc(-c4cc5cn[nH]c5cc4Cl)cc3n(Cc3ccc(F)c(C#N)c3)c2=O)c1 [Compound I-0011] | – | < 100 | < 1000 | – |
| Cc1cncc(-n2c(=O)c3c(Cl)cc(-c4cc(C#N)ccc4Cl)cc3n(Cc3ccc(F)c(C#N)c3)c2=O)c1 [Compound I-0013] | – | < 100 | < 1000 | – |
| Cn1cnc(Cn2c(=O)c3c(Cl)cc(-c4cc5cn[nH]c5cc4Cl)cc3n(Cc3cc(F)c(F)c(F)c3)c2=O)n1 [Compound I-0015] | – | < 100 | < 1000 | – |
| COc1cc(-c2cc(C#N)ccc2Cl)cc2c1c(=O)n(-c1cncc(C)c1)c(=O)n2Cc1ccc(F)c(C#N)c1 [Compound I-0027] | – | < 100 | < 1000 | – |
| COc1cc(-c2cc3c(cc2Cl)NC(=O)C3)cc2c1c(=O)n(-c1cncc(Cl)c1)c(=O)n2Cc1ccc(F)c(C#N)c1 [Compound I-0028] | 10100 | 7.5 | – | – |
| COc1cc(-c2cc(C(N)=O)ccc2Cl)cc2c1c(=O)n(-c1cncc(C)c1)c(=O)n2Cc1ccc(F)c(C#N)c1 [Compound I-0029] | 49800 | 7.8 | – | – |
| COc1cc(-c2cc(CO)ccc2Cl)cc2c1c(=O)n(-c1cncc(C)c1)c(=O)n2Cc1ccc(F)c(C#N)c1 [Compound I-0031] | – | < 100 | < 1000 | – |
| COc1cc(-c2cc(C#N)ccc2Cl)cc2c1c(=O)n(-c1cncc(Cl)c1)c(=O)n2Cc1ccc(F)c(C#N)c1 [Compound I-0033] | 217 | 13 | – | – |
| COc1cc(-c2cc(C(N)=O)ccc2Cl)cc2c1c(=O)n(Cc1ncn(C)n1)c(=O)n2Cc1cc(F)c(F)c(F)c1 [Compound I-0034] | – | < 100 | 1000 to 10000 | – |
| COc1cc(-c2cc(C#N)ccc2Cl)cc2c1c(=O)n(Cc1ncn(C)n1)c(=O)n2Cc1cc(F)c(F)c(F)c1 [Compound I-0035] | 363 | 25 | – | – |
| COc1cc(-c2cc(CO)ccc2Cl)cc2c1c(=O)n(Cc1ncn(C)n1)c(=O)n2Cc1cc(F)c(F)c(F)c1 [Compound I-0036] | – | < 100 | 1000 to 10000 | – |
| COc1cc(-c2cc3c(cc2Cl)NC(=O)C3)cc2c1c(=O)n(Cc1ncn(C)n1)c(=O)n2Cc1cc(F)c(F)c(F)c1F [Compound I-0047] | – | < 100 | 1000 to 10000 | – |
| COc1cc(-c2cc3cn[nH]c3cc2Cl)cc2c1c(=O)n(Cc1ncn(C)n1)c(=O)n2Cc1cc(F)c(F)c(F)c1F [Compound I-0048] | 537 | 11 | – | – |
| Cc1cncc(-n2c(=O)c3c(F)cc(-c4cc(C#N)ccc4Cl)cc3n(Cc3cc(F)c(F)c(F)c3)c2=O)c1 [Compound I-0049] | – | < 100 | < 1000 | – |
| Cc1cncc(-n2c(=O)c3c(F)cc(-c4cc(C(N)=O)ccc4Cl)cc3n(Cc3ccc(F)c(C#N)c3)c2=O)c1 [Compound I-0051] | – | < 100 | 1000 to 10000 | – |
| Cc1cncc(-n2c(=O)c3c(F)cc(-c4cc(CO)ccc4Cl)cc3n(Cc3cc(F)c(F)c(F)c3)c2=O)c1 [Compound I-0052] | – | < 100 | < 1000 | – |
| COc1cc(-c2cc(C#N)ccc2Cl)cc2c1c(=O)n(Cc1ncn(C)n1)c(=O)n2Cc1cc(F)c(F)c(F)c1F [Compound I-0053] | 497 | 30 | – | – |
| Cc1cncc(-n2c(=O)c3c(F)cc(-c4cc(CO)ccc4Cl)cc3n(Cc3ccc(F)c(C#N)c3)c2=O)c1 [Compound I-0054] | – | < 100 | < 1000 | – |
| Cc1cncc(-n2c(=O)c3c(F)cc(-c4cc(C(N)=O)ccc4Cl)cc3n(Cc3cc(F)c(F)cc3F)c2=O)c1 [Compound I-0055] | – | < 100 | < 1000 | – |
| COc1cc(-c2cc3c(cc2Cl)NC(=O)C3)cc2c1c(=O)n(-c1cncc(C)c1)c(=O)n2Cc1cc(F)c(F)c(F)c1 [Compound I-0058] | 194 | 1.5 | – | – |
| COc1cc(-c2cc3c(cc2Cl)NC(=O)C3)cc2c1c(=O)n(-c1cncc(C)c1)c(=O)n2Cc1cc(Cl)c(F)cn1 [Compound I-0059] | 335 | 2 | – | – |

| SMILES | EC50 [1, 4] [nM] | IC50 [2] [nM] | EC50 [1, 5] [nM] | EC50 [3] [nM] |
| --- | --- | --- | --- | --- |
| COc1cc(-c2cc3cn[nH]c3cc2Cl)cc2c1c(=O)n(-c1cncc(C)c1)c(=O)n2Cc1ccc(F)c(C#N)c1 [Compound I-0063] | – | < 100 | < 1000 | – |
| COc1cc(-c2cc3c(cc2Cl)NC(=O)C3)cc2c1c(=O)n(-c1cncc(Cl)c1)c(=O)n2Cc1cc(F)c(F)c(F)c1 [Compound I-0065] | – | < 100 | < 1000 | – |
| COc1cc(-c2cc(S(N)(=O)=O)ccc2Cl)cc2c1c(=O)n(-c1cncc(C)c1)c(=O)n2Cc1ccc(F)c(C#N)c1 [Compound I-0066] | 11100 | 5 | – | – |
| COc1cc(-c2cc(C(N)=O)ccc2Cl)cc2c1c(=O)n(-c1cncc(C)c1)c(=O)n2Cc1cc(F)c(F)c(F)c1 [Compound I-0067] | – | < 100 | < 1000 | – |
| COc1cc(-c2cc(NS(C)(=O)=O)ccc2Cl)cc2c1c(=O)n(-c1cncc(C)c1)c(=O)n2Cc1ccc(F)c(C#N)c1 [Compound I-0072] | 2430 | 10 | – | – |
| Cc1cncc(-n2c(=O)c3c(F)cc(-c4cc(C(N)=O)ccc4Cl)cc3n(Cc3cc(F)c(F)c(F)c3)c2=O)c1 [Compound I-0073] | – | < 100 | < 1000 | – |
| COc1cc(-c2cc(-c3cnn(C)c3)ccc2Cl)cc2c1c(=O)n(-c1cncc(C)c1)c(=O)n2Cc1ccc(F)c(C#N)c1 [Compound I-0074] | 1830 | 12 | – | – |
| COCc1ccc(Cl)c(-c2cc(OC)c3c(=O)n(-c4cncc(C)c4)c(=O)n(Cc4ccc(F)c(C#N)c4)c3c2)c1 [Compound I-0076] | 489 | 20 | – | – |
| COc1cc(-c2cc(C(C)=O)ccc2Cl)cc2c1c(=O)n(Cc1ncn(C)n1)c(=O)n2Cc1cc(F)c(F)c(F)c1 [Compound I-0116] | 1750 | 12 | – | – |
| COc1cc(-c2cc3c(cc2Cl)NC(=O)C3)cc2c1c(=O)n(Cc1ncn(C)n1)c(=O)n2Cc1cc(F)c(F)c(F)c1 [Compound I-0139] | 3620 | 4.5 | – | – |
| COc1cc(-c2cc3c(cc2Cl)NC(=O)C3)cc2c1c(=O)n(-c1cncc(C)c1)c(=O)n2Cc1cc(C#N)c(F)cc1C [Compound I-0160] | 670 | 0.73 | – | – |
| COc1cc(-c2cc3cn[nH]c3cc2Cl)cc2c1c(=O)n(-c1cncc(C)c1)c(=O)n2Cc1cc(C#N)c(F)cc1C [Compound I-0163] | 273 | 1.1 | – | – |
| COc1cc(-c2cc(C#N)ccc2Cl)cc2c1c(=O)n(-c1cncc(C)c1)c(=O)n2Cc1cc(C#N)c(F)cc1C [Compound I-0164] | 80 | 1.2 | – | – |
| COc1cc(-c2cc3cn[nH]c3cc2Cl)cc2c1c(=O)n(-c1cncc(C)c1)c(=O)n2Cc1cc(F)c(F)c(C#N)c1 [Compound I-0166] | – | < 100 | < 1000 | – |
| COc1cc(-c2cc3c(cc2Cl)NC(=O)C3)cc2c1c(=O)n(-c1cncc(C)c1)c(=O)n2Cc1cc(C#N)ccc1Cl [Compound I-0167] | 528 | 1.9 | – | – |
| COc1cc(-c2cc(C#N)ccc2Cl)cc2c1c(=O)n(-c1cncc(C)c1)c(=O)n2Cc1cc(C#N)ccc1Cl [Compound I-0168] | – | < 100 | < 1000 | – |
| COc1nc(N2CCC(O)(C(F)F)C2)cc2c1c(=O)n(-c1cnc3cc(F)ccn13)c(=O)n2-c1ccc(F)c(Cl)c1 (stereo not shown) [Compound I-1056] | – | < 100 | – | < 100 |
| COc1nc(N2CCC(F)(F)C2)cc2c1c(=O)n(-c1cncc(C#N)c1)c(=O)n2-c1ccc(F)c(F)c1 [Compound I-1057] | – | < 100 | – | < 100 |
| CCN(CC)c1cc2c(c(OC)n1)c(=O)n(-c1cnc3cc(F)ccn13)c(=O)n2-c1ccc(F)c(Cl)c1 [Compound I-1058] | – | < 100 | – | < 100 |
| COc1nc(N2CC[C@@H](C(C)(C)O)C2)cc2c1c(=O)n(-c1cncc(Cl)c1)c(=O)n2-c1ccc(F)c(Cl)c1 [Compound I-1059] | – | < 100 | – | < 100 |
| COc1nc(N2CCC3(CCOC3)C2)cc2c1c(=O)n(-c1cnc3cc(F)ccn13)c(=O)n2-c1ccc(F)c(Cl)c1 (stereo not shown) [Compound I-1060] | – | < 100 | – | < 100 |
| COC[C@@H](C)Nc1cc2c(c(OC)n1)c(=O)n(-c1cnc3cc(F)ccn13)c(=O)n2-c1ccc(F)c(Cl)c1 [Compound I-1061] | – | < 100 | – | < 100 |
| COCCCc1cc2c(c(OC)n1)c(=O)n(-c1cnc3cc(F)ccn13)c(=O)n2-c1ccc(F)c(Cl)c1 [Compound I-1062] | – | < 100 | – | < 100 |
| O=c1c2c(=O)n(-c3cnc4cc(F)ccn34)c(=O)n(-c3ccc(F)c(Cl)c3)c2cc2n1CC[C@H]1CCCCN21 [Compound I-1063] | – | < 100 | – | 100 to 1000 |
| COc1nc(N2CCC(O)(C(F)(F)F)C2)cc2c1c(=O)n(-c1cncc(Cl)c1)c(=O)n2-c1ccc(F)c(Cl)c1 (stereo not shown) [Compound I-1064] | – | < 100 | – | < 100 |
